Calls of active or inactive are those of the source. The calls are words filed in the database; no cut-off is given here.
Key:
[1] = Drug concentration in Sprague-Dawley rat plasma at 1 mg/kg, po measured after 0.25 hrs by LC-MS/MS analysis; type: ADME, organism-based
[2] = Drug concentration in Sprague-Dawley rat brain at 1 mg/kg, po measured after 6 hrs by LC-MS/MS analysis; type: ADME, organism-based; conditions: read-out: Ct
[3] = Half life in Sprague-Dawley rat at 0.1 mg/kg, iv by LC-MS/MS analysis; type: ADME, organism-based; conditions: in vivo
[4] = Ratio of drug concentration in brain to plasma in Sprague-Dawley rat at 1 mg/kg, po measured after 4 hrs by LC-MS/MS analysis; type: ADME, organism-based; conditions: read-out: BPR
[5] = molecular target: Glutamate receptor ionotropic, AMPA (Rattus norvegicus, UniProt P19490+P19491+P19492+P19493); assay: Agonist activity at AMPA receptor in rat Primary neuron cells; type: cell-based
[6] = Drug concentration in Sprague-Dawley rat plasma at 1 mg/kg, po measured after 6 hr by LC-MS/MS analysis; type: ADME, organism-based
[7] = tested on: Mus musculus; assay: Antidepressant activity in chronic restraint induced depressive mouse assessed as rescue in sucrose preference at 0.03 to 0.05 mg/kg administered for 2 days after 16th day by sucrose preference test; type: functional, organism-based; conditions: dose 0.03-0.05 mg/kg, time 2.0 day
[8] = Toxicity in mouse assessed as histopathological changes in spleen at 0.2 to 0.4 mg/kg, ip administered once daily for 2 weeks and measured after 15 days by H and E staining based analysis; type: organism-based; conditions: in vivo, 360 h, dose 0.2-0.4 mg/kg, time 15 day
[9] = Drug concentration in Sprague-Dawley rat plasma at 1 mg/kg, po measured after 8 hr by LC-MS/MS analysis; type: ADME, organism-based
[10] = AUC (0 to t) in Sprague-Dawley rat at 1 mg/kg, po by LC-MS/MS analysis; type: ADME, organism-based; design: dose 1 mg/kg, route po; conditions: in vivo
[11] = Drug concentration in Sprague-Dawley rat plasma at 1 mg/kg, po measured after 4 hr by LC-MS/MS analysis; type: ADME, organism-based

concentration at 0.25 h [1]: 125 ng/mL | concentration at 6 h [2]: 93 ng/g | half-life [3]: 163 min | Kp at 4 h [4]: 1.55 | EC50 [5]: 178 nM | concentration at 6 h [6]: 54.2 ng/mL | concentration at 8 h [9]: 25.5 ng/mL | AUC(0-t) [10]: 805 ng·h/mL | concentration at 4 h [11]: 79.3 ng/mL
Compound: O=S1(=O)NCc2cccc(-c3ccc(-c4ccccc4F)cc3)c2O1
Activity [7]: Active | Activity [8]: Non-Toxic

Reference: ChEMBL document CHEMBL5346925, “3,4-Dihydrobenzo[e][1,2,3]oxathiazine 2,2-dioxide analogs act as potential AMPA receptor potentiators with antidepressant activity” (Eur J Med Chem, 2023)
